As a reminder, the Ki is the equilibrium dissociation constant of an inhibitor or competing ligand from its target.

Molecules are shown by their SMILES. Some results are limits rather than exact numbers.

The results in this text go back to US20250163056A1, “NONMUSCLE MYOSIN II INHIBITORS” (The University of Florida Research Foundation, Inc., priority 2018, published 2025).

In one series the target is Bovine cardiac myosin (Bos taurus (Bovine), UniProt Q9BE39). Briefly: Cardiac muscle myosin II actin-activated ATPase assay (NADH-coupled). The conditions noted are these: for Ratio CMMII:NMII Ki/EC50: cardiac myosin II Ki over nonmuscle myosin II EC50; for Ki: 300 nM cardiac myosin, 10 μM actin, 25° C., read-out: CMMII KI. Set-up: key to Ratio CMMII:NMII Ki/EC50: NMII-sel: no Ki value for cardiac myosin II could be determined; the compounds had no detectable inhibitory properties versus the cardiac myosin II. The series is classed as biochemical. An excerpt:
(§1) The cardiac muscle myosin II actin-activated ATPase assay is a biochemical assay. Specifically, it is an NADH (nicotinamide adenine dinucleotide)-coupled ATPase assay that relies on NADH fluorescence as a readout. Cardiac myosin is a mechanochemical energy transducer that hydrolyzes ATP to generate force in the presence of its activator, F-actin. The resulting ADP is regenerated to ATP by pyruvate kinase (PK) that transforms one molecule of phosphoenolpyruvate (PEP) to pyruvate in parallel. Subsequently, pyruvate is reduced to lactate by lactate dehydrogenase (LDH) that, in turn, oxidizes one molecule of NADH to NAD. Therefore, the decrease in NADH concentration as a function of time equals the ATP hydrolysis rate. Bovine cardiac myosin is obtained from a commercial source, Cytoskeleton. PK, LDH, ATP, PEP, and NADH are obtained from Sigma. F-actin is prepared in house from Rabbit Muscle Acetone Powder. The assay is run at 25° C. in 384 well black-wall polystyrene microplates with a total volume of 20 μl per well. NADH fluorescence is monitored for 30 minutes with an EnVision Multimode Plate Reader. The slope of the fluorescence response, which is proportional to the reaction rate, is determined by simple linear regression. Final assay conditions are 300 nM cardiac myosin, 10 μM actin, 40 U/ml LDH, 200 U/ml PK, 220 μM NADH, 1 mM PEP, 1 mM ATP in a buffer containing 10 mM 3-(N-morpholino)propanesulfonic acid (pH=7.0), 2 mM MgCl2, 0.15 mM ethylene glycol-bis(p-aminoethyl ether)-N,N,N′,N′-tetraacetic acid, 0.1 mg/mL bovine serum albumin, 0.5% (V/V) dimethyl sulfoxide (DMSO) and 1 mM dithiothreitol. Prior to testing the inhibitory activity of the compounds, a two-fold dilution series starting at 10 mM compound concentration is prepared in DMSO. Subsequently, 100 nl is transferred to each well of the measuring plate containing a mixture of myosin, LDH and PK. The enzymatic reaction is started with the addition of a mixture containing ATP, PEP, NADH and actin. The highest final compound concentration is 50 uM. 20 μM para-aminoblebbistatin in 0.5% DMSO serves as the positive control and 0.5% DMSO alone is the negative control. Reaction rates are determined by using the fluorescence responses of a dilution series of NADH included in all plates and plotted as a function of inhibitor concentration. All measurements are carried out in triplicate. Inhibitory constants are determined by fitting the 16 point dose-response data to a quadratic equation corresponding to a simple one-to-one binding model.

Series [1] is described as follows: Photostability, percentage remaining undegraded under illumination or in the dark. The conditions noted are these: for Photostability 4 hours: percentage remaining undegraded after 4 hours illumination; for Photostability 24 hours: percentage remaining undegraded after 24 hours illumination; for Photostability Dark (24 h): percentage remaining undegraded in the dark.

The next series deals with Rabbit skeletal myosin. Put plainly: Skeletal muscle myosin II actin-activated ATPase assay. It counts as biochemical. Conditions: 20 nM skeletal muscle myosin II; read-out: SKMMII KI.
Text: as §1
The skeletal muscle myosin II actin-activated ATPase assay is performed the same as for cardiac muscle myosin II with the following exceptions: Rabbit skeletal myosin is obtained from Cytoskeleton and the final assay conditions contain 20 nM skeletal muscle myosin II.

Bovine cardiac myosin, sequence (Q9BE39 whole entry): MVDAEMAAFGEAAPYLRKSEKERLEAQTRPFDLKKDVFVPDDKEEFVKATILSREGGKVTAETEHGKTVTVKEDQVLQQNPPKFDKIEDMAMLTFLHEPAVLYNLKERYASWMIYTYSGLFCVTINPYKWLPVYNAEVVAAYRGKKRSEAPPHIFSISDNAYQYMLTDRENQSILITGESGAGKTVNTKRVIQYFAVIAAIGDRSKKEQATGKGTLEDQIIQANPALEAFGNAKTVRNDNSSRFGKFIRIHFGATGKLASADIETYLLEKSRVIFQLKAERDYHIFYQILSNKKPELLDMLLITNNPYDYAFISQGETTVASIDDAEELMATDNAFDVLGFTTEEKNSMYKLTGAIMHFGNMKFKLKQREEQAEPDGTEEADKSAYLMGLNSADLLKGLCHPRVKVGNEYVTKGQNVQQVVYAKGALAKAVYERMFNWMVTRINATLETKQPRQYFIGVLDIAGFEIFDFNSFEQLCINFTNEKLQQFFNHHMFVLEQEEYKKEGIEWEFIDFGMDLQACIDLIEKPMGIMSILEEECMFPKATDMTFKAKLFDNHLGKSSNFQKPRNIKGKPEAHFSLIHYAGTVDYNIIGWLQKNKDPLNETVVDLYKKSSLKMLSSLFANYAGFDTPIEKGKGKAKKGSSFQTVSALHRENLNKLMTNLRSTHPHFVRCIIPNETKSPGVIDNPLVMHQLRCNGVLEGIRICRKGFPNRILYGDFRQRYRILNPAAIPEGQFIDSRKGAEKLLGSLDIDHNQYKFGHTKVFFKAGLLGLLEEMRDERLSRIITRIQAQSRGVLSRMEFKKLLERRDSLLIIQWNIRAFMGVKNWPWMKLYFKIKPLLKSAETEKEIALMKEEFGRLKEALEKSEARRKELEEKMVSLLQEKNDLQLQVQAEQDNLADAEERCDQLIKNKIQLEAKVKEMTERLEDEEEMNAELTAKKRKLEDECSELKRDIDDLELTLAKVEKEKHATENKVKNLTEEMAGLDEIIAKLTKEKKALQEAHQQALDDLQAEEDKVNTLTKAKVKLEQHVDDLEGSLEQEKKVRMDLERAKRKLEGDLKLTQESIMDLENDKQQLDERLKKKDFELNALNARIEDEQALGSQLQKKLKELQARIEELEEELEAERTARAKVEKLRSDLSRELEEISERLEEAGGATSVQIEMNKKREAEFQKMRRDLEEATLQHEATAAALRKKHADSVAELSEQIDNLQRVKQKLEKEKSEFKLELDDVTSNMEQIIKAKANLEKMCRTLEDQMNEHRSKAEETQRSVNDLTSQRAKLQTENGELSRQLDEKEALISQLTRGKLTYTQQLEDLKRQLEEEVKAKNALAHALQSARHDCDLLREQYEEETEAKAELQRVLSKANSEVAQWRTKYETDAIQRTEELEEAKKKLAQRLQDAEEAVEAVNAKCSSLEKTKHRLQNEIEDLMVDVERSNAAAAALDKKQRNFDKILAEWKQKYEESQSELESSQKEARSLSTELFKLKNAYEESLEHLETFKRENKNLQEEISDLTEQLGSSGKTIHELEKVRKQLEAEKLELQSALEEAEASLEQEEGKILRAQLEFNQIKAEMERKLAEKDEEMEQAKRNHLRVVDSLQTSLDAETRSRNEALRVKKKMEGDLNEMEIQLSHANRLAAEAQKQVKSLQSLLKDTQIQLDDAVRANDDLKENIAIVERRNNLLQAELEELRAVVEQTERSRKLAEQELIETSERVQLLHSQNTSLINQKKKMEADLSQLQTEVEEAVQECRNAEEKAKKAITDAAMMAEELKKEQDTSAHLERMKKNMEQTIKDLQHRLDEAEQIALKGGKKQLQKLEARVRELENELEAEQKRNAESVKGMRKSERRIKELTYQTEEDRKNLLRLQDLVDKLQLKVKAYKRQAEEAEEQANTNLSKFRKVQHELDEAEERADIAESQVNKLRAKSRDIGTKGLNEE
Bovine cardiac myosin, sequence (P85100 whole entry partner): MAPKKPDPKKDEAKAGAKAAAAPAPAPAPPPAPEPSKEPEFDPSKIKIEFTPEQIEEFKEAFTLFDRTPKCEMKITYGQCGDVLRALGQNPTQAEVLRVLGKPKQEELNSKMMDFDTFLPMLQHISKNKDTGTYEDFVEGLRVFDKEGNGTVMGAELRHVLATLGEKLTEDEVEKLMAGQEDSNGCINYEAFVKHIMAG
Bovine cardiac myosin, sequence (Q3SZE5 whole entry partner): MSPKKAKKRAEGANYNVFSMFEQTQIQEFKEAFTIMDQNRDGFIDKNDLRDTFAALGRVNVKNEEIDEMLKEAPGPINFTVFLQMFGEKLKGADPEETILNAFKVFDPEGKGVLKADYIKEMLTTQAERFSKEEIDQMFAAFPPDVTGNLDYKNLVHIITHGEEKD

`Cc1cc2c(cc1C)C(=O)[C@]1(O)CCN(c3cnc4c(c3)CCCC4)C1=N2` [BPN-0028920]: the “Ratio CMMII:NMII Ki/EC50” value on Bovine cardiac myosin is “NMII-sel”. Moreover, in series [1], the “Photostability 4 hours” value came to 36.6%, the “Photostability 24 hours” value was 2.5% and the “Photostability Dark (24 h)” value was 98.4%. Also, the Ki on Rabbit skeletal myosin turned out to be 3900 nM.

With `Cc1cc2c(cc1C(F)(F)F)N=C1N(c3ccc(C#N)cc3)CC[C@@]1(O)C2=O` [BPN-0027071], the “Ratio CMMII:NMII Ki/EC50” value at Bovine cardiac myosin is “NMII-sel”. In addition, in series [1], the “Photostability 4 hours” value is over 99%, the “Photostability 24 hours” value amounted to 95.3% and the “Photostability Dark (24 h)” value is over 99%. Also, the Ki on Rabbit skeletal myosin is 20000 nM.

For the compound `Cc1cc2c(cc1Cl)C(=O)[C@]1(O)CCN(c3ccccc3)C1=N2` [BPN-0026659], on Bovine cardiac myosin, the Ki came to 9 µM and the “Ratio CMMII:NMII Ki/EC50” value was 3.5. Also, in series [1], the “Photostability 4 hours” value turned out to be 72.1%, the “Photostability 24 hours” value stood at 17.9% and the “Photostability Dark (24 h)” value stood at 91.1%. For the same compound, the Ki on Rabbit skeletal myosin was determined as 930 nM.

With `Cc1nc2ccc(N3CC[C@@]4(O)C(=O)c5cc(C)c(C)cc5N=C34)cc2o1` [BPN-0027213], on Bovine cardiac myosin, the Ki was 33 µM and the “Ratio CMMII:NMII Ki/EC50” value came to 11.4. Also, in series [1], the “Photostability 4 hours” value is on record as 46.3%, the “Photostability 24 hours” value is 1.0% and the “Photostability Dark (24 h)” value is given as 85.0%. In addition, the Ki on Rabbit skeletal myosin worked out at 450 nM.

Consider `Cc1ccc2c(c1)C(=O)[C@]1(O)CCN(c3ccc4ncc(N)cc4c3)C1=N2` [BPN-0028652], for which, on Bovine cardiac myosin, the Ki came to 80 µM and the “Ratio CMMII:NMII Ki/EC50” value is 9.6. In series [1], the “Photostability 4 hours” value is recorded as 86.2%, the “Photostability 24 hours” value was found to be 22.8% and the “Photostability Dark (24 h)” value is recorded as 98.5%. Besides, at Rabbit skeletal myosin, the Ki is 1300 nM.

Take `Cc1cc2c(cc1C)C(=O)[C@]1(O)CCN(c3ccc4sc(C(C)C)nc4c3)C1=N2` [BPN-0028919]: the “Ratio CMMII:NMII Ki/EC50” value at Bovine cardiac myosin is on record as “NMII-sel”. In series [1], the “Photostability 4 hours” value is reported as 48.4%, the “Photostability 24 hours” value was under 1% and the “Photostability Dark (24 h)” value is recorded as 98.5%. The Ki on Rabbit skeletal myosin came out at 1400 nM.

Regarding `Cc1cc2c(cc1C)C(=O)[C@]1(O)CCN(c3ccc(C#N)c(C)c3)C1=N2` [BPN-0026661], on Bovine cardiac myosin, the inhibitory constant (Ki) was found to be 53 µM and the “Ratio CMMII:NMII Ki/EC50” value is 22.1. Besides, in series [1], the “Photostability 4 hours” value was found to be 95.5%, the “Photostability 24 hours” value turned out to be 65.4% and the “Photostability Dark (24 h)” value was determined as 98.2%. At Rabbit skeletal myosin, the Ki worked out at 2200 nM.

Take `O=C1c2cc(C(F)(F)F)ccc2N=C2N(c3ccc4ncccc4c3)CC[C@@]12O` [BPN-0027218]: on Bovine cardiac myosin, the “Ratio CMMII:NMII Ki/EC50” value is on record as “NMII-sel”. Further, in series [1], the “Photostability 4 hours” value came out at 90.0%, the “Photostability 24 hours” value is 4.4% and the “Photostability Dark (24 h)” value amounted to 95.5%. At Rabbit skeletal myosin, the inhibition constant (Ki) was 40000 nM.

Regarding `Cc1cc2c(s1)N=C1N(c3ccc4ncccc4c3)CC[C@@]1(O)C2=O` [BPN-0027216], on Bovine cardiac myosin, the Ki stood at 31 µM and the “Ratio CMMII:NMII Ki/EC50” value is on record as 11.5. For the same compound, in series [1], the “Photostability 4 hours” value is reported as 97.2%, the “Photostability 24 hours” value turned out to be 85.0% and the “Photostability Dark (24 h)” value is over 99%. Besides, the Ki at Rabbit skeletal myosin is 4600 nM.

As for `Cc1ncc(N2CC[C@@]3(O)C(=O)c4cc(C)c(C)cc4N=C23)s1` [BPN-0026693], on Bovine cardiac myosin, the Ki was determined as 3.5 µM and the “Ratio CMMII:NMII Ki/EC50” value came to 6.0. Further, in series [1], the “Photostability 4 hours” value turned out to be 34.1%, the “Photostability 24 hours” value is on record as 1.7% and the “Photostability Dark (24 h)” value is given as over 99%. The Ki at Rabbit skeletal myosin came out at 270 nM.

Turning to `Cc1ccc2c(c1)C(=O)[C@]1(O)CCN(c3ccc(C#N)c(C)c3)C1=N2` [BPN-0026324], on Bovine cardiac myosin, the Ki amounted to 30 µM and the “Ratio CMMII:NMII Ki/EC50” value was determined as 13.6. Also, in series [1], the “Photostability 4 hours” value amounted to 98.5%, the “Photostability 24 hours” value was 90.4% and the “Photostability Dark (24 h)” value is over 99%. Moreover, the Ki on Rabbit skeletal myosin stood at 3500 nM.

On to `Cc1sc2c(c1C)C(=O)[C@]1(O)CCN(c3ccc(C#N)c(Cl)c3)C1=N2` [BPN-0027238], for which the “Ratio CMMII:NMII Ki/EC50” value on Bovine cardiac myosin is recorded as “NMII-sel”. Further, in series [1], the “Photostability 4 hours” value is over 99%, the “Photostability 24 hours” value is given as over 99% and the “Photostability Dark (24 h)” value is recorded as over 99%. Also, the Ki at Rabbit skeletal myosin was 3700 nM.

`Cc1ccc2c(c1)C(=O)[C@]1(O)CCN(c3ccc4nc(C)ccc4c3)C1=N2` [BPN-0027289]: at Bovine cardiac myosin, the Ki was 50 µM and the “Ratio CMMII:NMII Ki/EC50” value was 29.4. Further, in series [1], the “Photostability 4 hours” value turned out to be 91.9%, the “Photostability 24 hours” value is given as 26.3% and the “Photostability Dark (24 h)” value was 97.0%. Moreover, the Ki at Rabbit skeletal myosin stood at 1000 nM.

For `Cc1ccc2c(c1)C(=O)[C@]1(O)CCN(c3ccc(CO)c(Cl)c3)C1=N2` [BPN-0027163], at Bovine cardiac myosin, the Ki came to 21 µM and the “Ratio CMMII:NMII Ki/EC50” value was 5.0. Besides, in series [1], the “Photostability 4 hours” value worked out at 95.0%, the “Photostability 24 hours” value was 44.6% and the “Photostability Dark (24 h)” value was over 99%. In addition, the inhibition constant (Ki) at Rabbit skeletal myosin was 5900 nM.

Take `Cc1cc2c(cc1F)C(=O)[C@]1(O)CCN(c3cccs3)C1=N2` [BPN-0026748]: on Bovine cardiac myosin, the Ki worked out at 14 µM and the “Ratio CMMII:NMII Ki/EC50” value amounted to 4.7. Also, in series [1], the “Photostability 4 hours” value is reported as 88.2%, the “Photostability 24 hours” value amounted to 22.4% and the “Photostability Dark (24 h)” value is recorded as over 99%. On Rabbit skeletal myosin, the Ki turned out to be 2600 nM.

For the compound `COc1ccc(N2CC[C@@]3(O)C(=O)c4cc(C)c(C)cc4N=C23)cc1` [BPN-0026665], at Bovine cardiac myosin, the inhibition constant Ki is 4.2 µM and the “Ratio CMMII:NMII Ki/EC50” value was 6.7. Further, in series [1], the “Photostability 4 hours” value is reported as 2.7%, the “Photostability 24 hours” value is listed as under 1% and the “Photostability Dark (24 h)” value turned out to be 97.4%. The Ki at Rabbit skeletal myosin is 140 nM.

For `Cc1cc2c(cc1C)C(=O)[C@]1(O)CCN(c3ccc4nnccc4c3)C1=N2` [BPN-0027241], at Bovine cardiac myosin, the Ki turned out to be 100 µM and the “Ratio CMMII:NMII Ki/EC50” value is 7.7. In addition, in series [1], the “Photostability 4 hours” value worked out at 91.6%, the “Photostability 24 hours” value came to 87.0% and the “Photostability Dark (24 h)” value is listed as 97.4%. Moreover, at Rabbit skeletal myosin, the Ki worked out at 7200 nM.

On to `Cc1cc(N2CC[C@@]3(O)C(=O)c4cc(C(F)(F)F)ccc4N=C23)on1` [BPN-0027237], for which, on Bovine cardiac myosin, the Ki turned out to be 50 µM and the “Ratio CMMII:NMII Ki/EC50” value is reported as 4.5. In addition, in series [1], the “Photostability 4 hours” value came to 79.8%, the “Photostability 24 hours” value was found to be 15.8% and the “Photostability Dark (24 h)” value is listed as 82.7%. Further, the Ki at Rabbit skeletal myosin turned out to be 6700 nM.

Consider `CCc1cc2c(s1)N=C1N(c3ccc(C)cc3)CC[C@@]1(O)C2=O` [BPN-0026774], for which, at Bovine cardiac myosin, the Ki is 8.9 µM and the “Ratio CMMII:NMII Ki/EC50” value was 3.4. In series [1], the “Photostability 4 hours” value stood at 86.7%, the “Photostability 24 hours” value came to 18.1% and the “Photostability Dark (24 h)” value was over 99%. Further, the Ki on Rabbit skeletal myosin was determined as 1100 nM.

Take `Cc1cc2c(cc1F)C(=O)[C@]1(O)CCN(c3ccc4ccoc4c3)C1=N2` [BPN-0026619]: at Bovine cardiac myosin, the Ki was found to be 36 µM and the “Ratio CMMII:NMII Ki/EC50” value was 22.5. Moreover, in series [1], the “Photostability 4 hours” value was 77.4%, the “Photostability 24 hours” value is under 1% and the “Photostability Dark (24 h)” value was found to be 91.0%. For the same compound, the Ki at Rabbit skeletal myosin amounted to 2500 nM.
